Assays:
Assay in all cases: NCI-60 single dose screen, sulforhodamine B
Assay type in all cases: cell-based, human
HCT-116 = details: Colon cancer HCT-116; single dose 10^−5 M
Summary of the method: (§1)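 Tested once, at 10^−5 M in DMSO, the compounds stayed on the cells for 2 days before SRB staining. A time-zero control, set one day after seeding, lets cell kill be told apart from growth inhibition.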

KM12 = details: Colon cancer KM12; single dose 10^−5 M
Summary of the method: as §1

OVCAR-5 = details: Ovarian cancer OVCAR-5; single dose 10^−5 M
Summary of the method: as §1

NCI-H226 = details: Non-small cell lung cancer NCI-H226; single dose 10^−5 M
Summary of the method: as §1

SF-268 = details: CNS cancer SF-268; single dose 10^−5 M
Summary of the method: as §1

UO-31 = details: Renal cancer UO-31; single dose 10^−5 M
Summary of the method: as §1

TK-10 = details: Renal cancer TK-10; single dose 10^−5 M
Summary of the method: as §1

NCI-H23 = details: Non-small cell lung cancer NCI-H23; single dose 10^−5 M
Summary of the method: as §1

MDA-MB-435 = details: Melanoma MDA-MB-435; single dose 10^−5 M
Summary of the method: as §1

SK-MEL-5 = details: Melanoma SK-MEL-5; single dose 10^−5 M
Summary of the method: as §1

HOP-62 = details: Non-small cell lung cancer HOP-62; single dose 10^−5 M
Summary of the method: as §1

M14 = details: Melanoma M14; single dose 10^−5 M
Summary of the method: as §1

HT29 = details: Colon cancer HT29; single dose 10^−5 M
Summary of the method: as §1

SK-MEL-28 = details: Melanoma SK-MEL-28; single dose 10^−5 M
Summary of the method: as §1

SK-MEL-2 = details: Melanoma SK-MEL-2; single dose 10^−5 M
Summary of the method: as §1

OVCAR-4 = details: Ovarian cancer OVCAR-4; single dose 10^−5 M
Summary of the method: as §1

A498 = details: Renal cancer A498; single dose 10^−5 M
Summary of the method: as §1

PC-3 = details: Prostate cancer PC-3; single dose 10^−5 M
Summary of the method: as §1

SF-539 = details: CNS cancer SF-539; single dose 10^−5 M
Summary of the method: as §1

LOX IMVI = details: Melanoma LOX IMVI; single dose 10^−5 M
Summary of the method: as §1

DU-145 = details: Prostate cancer DU-145; single dose 10^−5 M
Summary of the method: as §1

SNB-19 = details: CNS cancer SNB-19; single dose 10^−5 M
Summary of the method: as §1

EKVX = details: Non-small cell lung cancer EKVX; single dose 10^−5 M
Summary of the method: as §1

NCI-H322M = details: Non-small cell lung cancer NCI-H322M; single dose 10^−5 M
Summary of the method: as §1

HCC-2998 = details: Colon cancer HCC-2998; single dose 10^−5 M
Summary of the method: as §1

SW-620 = details: Colon cancer SW-620; single dose 10^−5 M
Summary of the method: as §1

CCRF-CEM = details: Leukaemia CCRF-CEM; single dose 10^−5 M
Summary of the method: as §1

K-562 = details: Leukaemia K-562; single dose 10^−5 M
Summary of the method: as §1

HOP-92 = details: Non-small cell lung cancer HOP-92; single dose 10^−5 M
Summary of the method: as §1

786-0 = details: Renal cancer 786-0; single dose 10^−5 M
Summary of the method: as §1

A549/ATCC = details: Non-small cell lung cancer A549/ATCC; single dose 10^−5 M
Summary of the method: as §1

T-47D = details: Breast cancer T-47D; single dose 10^−5 M
Summary of the method: as §1

Compound: COc1ccc(N2CCN(CC(=O)Nn3c(COc4ccccc4)nc4ccccc4c3=O)CC2)cc1 [Compound 8c, 2–(4-(4-methoxyphenyl)piperazin-1-yl)-N-(4-oxo-2-(phenoxymethyl)quinazolin-3(4H)-yl)acetamide]
- GI% at 10^−5 M (HCT-116): – (– means GI < 10%)
- GI% at 10^−5 M (KM12): – (– means GI < 10%)
- GI% at 10^−5 M (OVCAR-5): – (– means GI < 10%)
- GI% at 10^−5 M (NCI-H226): – (– means GI < 10%)
- GI% at 10^−5 M (SF-268): – (– means GI < 10%)
- GI% at 10^−5 M (UO-31): 10.03%
- GI% at 10^−5 M (TK-10): – (– means GI < 10%)
- GI% at 10^−5 M (NCI-H23): – (– means GI < 10%)
- GI% at 10^−5 M (MDA-MB-435): – (– means GI < 10%)
- GI% at 10^−5 M (SK-MEL-5): – (– means GI < 10%)
- GI% at 10^−5 M (HOP-62): – (– means GI < 10%)
- GI% at 10^−5 M (M14): – (– means GI < 10%)
- GI% at 10^−5 M (HT29): – (– means GI < 10%)
- GI% at 10^−5 M (SK-MEL-28): – (– means GI < 10%)
- GI% at 10^−5 M (SK-MEL-2): – (– means GI < 10%)
- GI% at 10^−5 M (OVCAR-4): – (– means GI < 10%)
- GI% at 10^−5 M (A498): 15.04%
- GI% at 10^−5 M (PC-3): 14.02%
- GI% at 10^−5 M (SF-539): – (– means GI < 10%)
- GI% at 10^−5 M (LOX IMVI): – (– means GI < 10%)
- GI% at 10^−5 M (DU-145): – (– means GI < 10%)
- GI% at 10^−5 M (SNB-19): – (– means GI < 10%)
- GI% at 10^−5 M (EKVX): – (– means GI < 10%)
- GI% at 10^−5 M (NCI-H322M): – (– means GI < 10%)
- GI% at 10^−5 M (HCC-2998): – (– means GI < 10%)
- GI% at 10^−5 M (SW-620): – (– means GI < 10%)
- GI% at 10^−5 M (CCRF-CEM): – (– means GI < 10%)
- GI% at 10^−5 M (K-562): – (– means GI < 10%)
- GI% at 10^−5 M (HOP-92): – (– means GI < 10%)
- GI% at 10^−5 M (786-0): – (– means GI < 10%)
- GI% at 10^−5 M (A549/ATCC): – (– means GI < 10%)
- GI% at 10^−5 M (T-47D): – (– means GI < 10%)
